Measurements published in patent US9018197B2, “Tetradecahydro-1H-cyclopenta[a]phenanthrene compounds, compositions, and related methods of use” (Suzhou Neupharma Co. Ltd., priority 2010, dated 2015).

How the values were obtained:
Bcap-37 cells = assay: Inhibition of cell growth in tumor cells, MTT assay, Bcap-37 cells; assay type: cell-based; settings: Homo sapiens, Bcap37, 72 h compound exposure
Method: (§1) Inhibition of cell growth by compounds was measured using MTT assay (Mosmann, T., Journal of Immunological Methods, 1983, 65, 55-63). Tumor cell lines were purchased from ATCC (American Type Culture Collection, Manassas, Va.). All cell lines were maintained in RPMI 1640 (Hyclone) supplemented with 10% fetal bovine serum (FBS, Hyclone), glutamine (2 mM, Hyclone), and antibiotics (penicillin 100 U/mL and streptomycin 50 μg/mL) at 37° C. in a humidified atmosphere of 5% CO2 in air. Taxol (positive control, Sigma) and compounds were dissolved in DMSO (Sigma), and the final concentration of DMSO in the medium was 1%. Tumor cells were plated in 96-well plates at densities from 4000 cells/well of a 96-well plate and allowed to adhere/grow for 24 h. They were then treated with various concentrations of drug for 72 h. 3-(4,5-Dimethylthiazol-2-yl)-2,5-diphenyltetrazolium bromide (MTT, Sigma) was used to determine the number of viable cells at the time of compound addition and the number of cells remaining after 72 h compound exposure. The number of cells remaining after 72 h was compared to the number of viable cells at the time of compound addition by measuring the absorbance at 570 nm, allowing for the calculation of growth inhibition.
(§2) All concentrations of compounds were tested in triplicate and controls were averaged over 4 wells. IC50 was calculated by plotting the concentration of compound vs the percentage of inhibition in treated wells using GraphPad Prism 5.

A549 cells = assay: Inhibition of cell growth in tumor cells, MTT assay, A549 cells; assay type: cell-based; settings: Homo sapiens, 72 h compound exposure
Method: as §1, §2

For `C[C@]12CC[C@H](OC(=O)NCCN3CCCC3)C[C@H]1CC[C@H]1C3=CC[C@H](c4ccc(=O)oc4)[C@@]3(C)CC[C@@H]12` [(3S,5R,8R,9S,10S,13R,17S)-10,13-dimethyl-17-(2-oxo-2H-pyran-5-yl)-2,3,4,5,6,7,8,9,10,11,12,13,16,17-tetradecahydro-1H-cyclopenta[a]phenanthren-3-yl 2-(pyrrolidin-1-yl)ethylcarbamate], the IC50 (Bcap-37 cells) was 168 nM and the IC50 (A549 cells) was 217 nM.

`C[C@]12CC[C@H](OC(=O)NCCN3CCOCC3)C[C@H]1CC[C@H]1C3=CC[C@H](c4ccc(=O)oc4)[C@@]3(C)CC[C@@H]12` [(3S,5R,8R,9S,10S,13R,17S)-10,13-dimethyl-17-(2-oxo-2H-pyran-5-yl)-2,3,4,5,6,7,8,9,10,11,12,13,16,17-tetradecahydro-1H-cyclopenta[a]phenanthren-3-yl 2-morpholinoethylcarbamate] showed an IC50 (Bcap-37 cells) of 192 nM and an IC50 (A549 cells) of 54.8 nM.

Compound `C[C@]12CC[C@H](OC(=O)N3CCNCC3)C[C@H]1CC[C@H]1C3=CC[C@H](c4ccc(=O)oc4)[C@@]3(C)CC[C@@H]12` [(3S,5R,8R,9S,10S,13R,17S)-10,13-dimethyl-17-(2-oxo-2H-pyran-5-yl)-2,3,4,5,6,7,8,9,10,11,12,13,16,17-tetradecahydro-1H-cyclopenta[a]phenanthren-3-ylpiperazine-1-carboxylate] has an IC50 (Bcap-37 cells) of 137 nM and an IC50 (A549 cells) of 90.2 nM.

For `CC(C)[C@@H](N)C(=O)O[C@H]1CC[C@@]2(C)[C@H](CC[C@H]3C4=CC[C@H](c5ccc(=O)oc5)[C@@]4(C)CC[C@@H]32)C1` [(R)-((3S,5R,8R,9S,10S,13R,17S)-10,13-dimethyl-17-(2-oxo-2H-pyran-5-yl)-2,3,4,5,6,7,8,9,10,11,12,13,16,17-tetradecahydro-1H-cyclopenta[a]phenanthren-3-yl) 2-amino-3-methylbutanoate], the IC50 (Bcap-37 cells) was 155 nM and the IC50 (A549 cells) was 171 nM.

`CC(C)C[C@@H](N)C(=O)O[C@H]1CC[C@@]2(C)[C@H](CC[C@H]3C4=CC[C@H](c5ccc(=O)oc5)[C@@]4(C)CC[C@@H]32)C1` [(R)-((3S,5R,8R,9S,10S,13R,17S)-10,13-dimethyl-17-(2-oxo-2H-pyran-5-yl)-2,3,4,5,6,7,8,9,10,11,12,13,16,17-tetradecahydro-1H-cyclopenta[a]phenanthren-3-yl) 2-amino-4-methylpentanoate] was tested, and the IC50 (Bcap-37 cells) was 376 nM.

Work on `C[C@@H](N)C(=O)O[C@H]1CC[C@@]2(C)[C@H](CC[C@H]3C4=CC[C@H](c5ccc(=O)oc5)[C@@]4(C)CC[C@@H]32)C1` [(R)-((3S,5R,8R,9S,10S,13R,17S)-10,13-dimethyl-17-(2-oxo-2H-pyran-5-yl)-2,3,4,5,6,7,8,9,10,11,12,13,16,17-tetradecahydro-1H-cyclopenta[a]phenanthren-3-yl) 2-aminopropanoate] yielded an IC50 (Bcap-37 cells) of 161 nM and an IC50 (A549 cells) of 106 nM.

Work on `CC(C)[C@H](N)C(=O)O[C@H]1CC[C@@]2(C)[C@H](CC[C@H]3C4=CC[C@H](c5ccc(=O)oc5)[C@@]4(C)CC[C@@H]32)C1` [(S)-((3S,5R,8R,9S,10S,13R,17S)-10,13-dimethyl-17-(2-oxo-2H-pyran-5-yl)-2,3,4,5,6,7,8,9,10,11,12,13,16,17-tetradecahydro-1H-cyclopenta[a]phenanthren-3-yl) 2-amino-3-methylbutanoate] yielded an IC50 (Bcap-37 cells) of 444 nM.

Compound `CC(C)C[C@H](N)C(=O)O[C@H]1CC[C@@]2(C)[C@H](CC[C@H]3C4=CC[C@H](c5ccc(=O)oc5)[C@@]4(C)CC[C@@H]32)C1` [(S)-((3S,5R,8R,9S,10S,13R,17S)-10,13-dimethyl-17-(2-oxo-2H-pyran-5-yl)-2,3,4,5,6,7,8,9,10,11,12,13,16,17-tetradecahydro-1H-cyclopenta[a]phenanthren-3-yl) 2-amino-4-methylpentanoate] has an IC50 (A549 cells) of 229 nM.

With `C[C@H](N)C(=O)O[C@H]1CC[C@@]2(C)[C@H](CC[C@H]3C4=CC[C@H](c5ccc(=O)oc5)[C@@]4(C)CC[C@@H]32)C1` [(S)-((3S,5R,8R,9S,10S,13R,17S)-10,13-dimethyl-17-(2-oxo-2H-pyran-5-yl)-2,3,4,5,6,7,8,9,10,11,12,13,16,17-tetradecahydro-1H-cyclopenta[a]phenanthren-3-yl) 2-aminopropanoate] the IC50 (A549 cells) was 112 nM.
